Test results: patent publication US20210402016A1, “RADIOLABELED BOMBESIN-DERIVED COMPOUNDS FOR IN VIVO IMAGING OF GASTRIN-RELEASING PEPTIDE RECEPTOR (GRPR) AND TREATMENT OF GRPR-RELATED DISORDERS” (Provincial Health Services Authority, priority 2018, published 2021)
Where two headings read alike, the source gives them in different places.

How the values were obtained:
[1] = system: PC-3 xenograft bearing mice; conditions: PET/CT, PC-3 tumor-bearing mice
Protocol: Animal experiments were approved by the Animal Ethics Committee of the University of British Columbia.
Mice were sedated and scanned (Siemens Inveon microPET/CT) with body temperature maintained by heating pad. […] PET data were acquired in list mode, reconstructed using 3-dimensional ordered-subsets expectation maximization (2 iterations) followed by a fast maximum a priori algorithm (18 iterations) with CT-based attenuation correction. Images were analyzed using the Inveon Research Workplace software (Siemens Healthineers).

[2] = measured at 5 min and 15 min p.i., mice, radio-HPLC
Source text: ^68Ga-ProBOMB2 (5.9±0.3 MBq) was intravenously injected into four male NSG mice. After a 5-min and 15-min uptake period, two mice were sedated/euthanized at each timepoint, and blood was collected. The plasma was extracted from whole blood with acetonitrile, vortexed, and the supernatant separated.

[3] = system: PC-3 xenograft bearing mice; assay: Biodistribution in PC-3 tumor-bearing NSG mice (Example 2); assay type: in vivo
Protocol: (§1) […]. The mice were sacrificed by CO2 inhalation at 1 h, and 2 h p.i. Blood was collected by cardiac puncture. Organs/tissues were harvested, rinsed with PBS, blotted dry, and weighed. The activity in tissues was assayed by gamma counter and expressed as the percentage injected dose per gram of tissue (% ID/g).

[4] = as above; assay type: in vivo; conditions: male, NSG (NOD.Cg-Prkdc^scid Il2rg^tm1Wjl/SzJ), mouse, iv, total radioactivity; for tissue uptake at 2 h / tissue to tissue ratio at 2 h: 120 MIN p.i.
Protocol: as §1

CC(C)C[C@@H](CN1CCC[C@H]1C(N)=O)NC(=O)[C@H](Cc1c[nH]cn1)NC(=O)CNC(=O)[C@@H](NC(=O)[C@H](C)NC(=O)[C@H](Cc1c[nH]c2ccccc12)NC(=O)[C@H](CCC(N)=O)NC(=O)[C@@H](Cc1ccccc1)NC(=O)CN1CCC(NC(=O)CN2CCN(CC(=O)O)CCN(CC(=O)O)CCN(CC(=O)O)CC2)CC1)C(C)C [^68Ga-ProBOMB2, metal not drawn]
Clearance pathway [1]: primarily cleared through the renal pathway | Intact in plasma [2]: 89% | TUMOR-TO-BLOOD ratio, Mean ([3]; 60 MIN BLOCKED, co-injection of 100 μg of [D-Phe^6,Leu-NHEt^13,des-Met^14]Bombesin(6-14)): 7.23 | Decrease of average uptake in tumors by co-injection of [D-Phe^6, Leu-NHEt^13, des-Met^14]Bombesin(6-14) ([3]; PC-3 tumors, 60 min p.i., 100 μg blocker): 65% | tissue uptake at 1 h ([4]; PC-3 tumor, 60 MIN BLOCKED, co-injection of 100 μg of [D-Phe^6,Leu-NHEt^13,des-Met^14]Bombesin(6-14), read-out: Biodistribution PC3 TUMOR, Mean): 3.77 %ID/g | tissue uptake at 1 h ([4]; PC-3 tumor, 60 MIN p.i., read-out: Biodistribution PC3 TUMOR, Mean): 10.8 %ID/g | tissue uptake at 2 h ([4]; PC-3 tumor, read-out: Biodistribution PC3 TUMOR, Mean): 8.79 %ID/g | tissue uptake at 1 h ([4]; adrenal glands, 60 MIN BLOCKED, co-injection of 100 μg of [D-Phe^6,Leu-NHEt^13,des-Met^14]Bombesin(6-14), read-out: Biodistribution ADRENAL GLANDS, Mean): 0.32 %ID/g | tissue uptake at 1 h ([4]; adrenal glands, 60 MIN p.i., read-out: Biodistribution ADRENAL GLANDS, Mean): 0.76 %ID/g | tissue uptake at 2 h ([4]; adrenal glands, read-out: Biodistribution ADRENAL GLANDS, Mean): 0.47 %ID/g | tissue uptake at 1 h ([4]; bone, 60 MIN BLOCKED, co-injection of 100 μg of [D-Phe^6,Leu-NHEt^13,des-Met^14]Bombesin(6-14), read-out: Biodistribution BONE, Mean): 0.13 %ID/g | tissue uptake at 1 h ([4]; bone, 60 MIN p.i., read-out: Biodistribution BONE, Mean): 0.15 %ID/g | tissue uptake at 2 h ([4]; bone, read-out: Biodistribution BONE, Mean): 0.06 %ID/g | tissue uptake at 1 h ([4]; brain, 60 MIN BLOCKED, co-injection of 100 μg of [D-Phe^6,Leu-NHEt^13,des-Met^14]Bombesin(6-14), read-out: Biodistribution BRAIN, Mean): 0.02 %ID/g | tissue uptake at 1 h ([4]; brain, 60 MIN p.i., read-out: Biodistribution BRAIN, Mean): 0.02 %ID/g | tissue uptake at 2 h ([4]; brain, read-out: Biodistribution BRAIN, Mean): 0.01 %ID/g | tissue uptake at 1 h ([4]; fat, 60 MIN BLOCKED, co-injection of 100 μg of [D-Phe^6,Leu-NHEt^13,des-Met^14]Bombesin(6-14), read-out: Biodistribution FAT, Mean): 0.08 %ID/g | tissue uptake at 1 h ([4]; fat, 60 MIN p.i., read-out: Biodistribution FAT, Mean): 0.06 %ID/g | tissue uptake at 2 h ([4]; fat, read-out: Biodistribution FAT, Mean): 0.02 %ID/g | tissue uptake at 1 h ([4]; heart, 60 MIN BLOCKED, co-injection of 100 μg of [D-Phe^6,Leu-NHEt^13,des-Met^14]Bombesin(6-14), read-out: Biodistribution HEART, Mean): 0.16 %ID/g | tissue uptake at 1 h ([4]; heart, 60 MIN p.i., read-out: Biodistribution HEART, Mean): 0.18 %ID/g | tissue uptake at 2 h ([4]; heart, read-out: Biodistribution HEART, Mean): 0.05 %ID/g | tissue uptake at 1 h ([4]; intestine, 60 MIN BLOCKED, co-injection of 100 μg of [D-Phe^6,Leu-NHEt^13,des-Met^14]Bombesin(6-14), read-out: Biodistribution INTESTINE, Mean): 0.34 %ID/g | tissue uptake at 1 h ([4]; intestine, 60 MIN p.i., read-out: Biodistribution INTESTINE, Mean): 0.46 %ID/g | tissue uptake at 2 h ([4]; intestine, read-out: Biodistribution INTESTINE, Mean): 0.19 %ID/g | tissue uptake at 1 h ([4]; kidney, 60 MIN BLOCKED, co-injection of 100 μg of [D-Phe^6,Leu-NHEt^13,des-Met^14]Bombesin(6-14), read-out: Biodistribution KIDNEY, Mean): 2.22 %ID/g | tissue uptake at 1 h ([4]; kidney, 60 MIN p.i., read-out: Biodistribution KIDNEY, Mean): 1.81 %ID/g | tissue uptake at 2 h ([4]; kidney, read-out: Biodistribution KIDNEY, Mean): 1.27 %ID/g | tissue uptake at 1 h ([4]; liver, 60 MIN BLOCKED, co-injection of 100 μg of [D-Phe^6,Leu-NHEt^13,des-Met^14]Bombesin(6-14), read-out: Biodistribution LIVER, Mean): 0.57 %ID/g | tissue uptake at 1 h ([4]; liver, 60 MIN p.i., read-out: Biodistribution LIVER, Mean): 0.43 %ID/g | tissue uptake at 2 h ([4]; liver, read-out: Biodistribution LIVER, Mean): 0.29 %ID/g | tissue uptake at 1 h ([4]; lungs, 60 MIN BLOCKED, co-injection of 100 μg of [D-Phe^6,Leu-NHEt^13,des-Met^14]Bombesin(6-14), read-out: Biodistribution LUNGS, Mean): 0.41 %ID/g | tissue uptake at 1 h ([4]; lungs, 60 MIN p.i., read-out: Biodistribution LUNGS, Mean): 0.39 %ID/g | tissue uptake at 2 h ([4]; lungs, read-out: Biodistribution LUNGS, Mean): 0.13 %ID/g | tissue uptake at 1 h ([4]; muscle, 60 MIN BLOCKED, co-injection of 100 μg of [D-Phe^6,Leu-NHEt^13,des-Met^14]Bombesin(6-14), read-out: Biodistribution MUSCLE, Mean): 0.09 %ID/g | tissue uptake at 1 h ([4]; muscle, 60 MIN p.i., read-out: Biodistribution MUSCLE, Mean): 0.15 %ID/g | tissue uptake at 2 h ([4]; muscle, read-out: Biodistribution MUSCLE, Mean): 0.03 %ID/g | tissue uptake at 1 h ([4]; pancreas, Biodistribution PANCREAS, Mean, 60 MIN BLOCKED, co-injection of 100 μg of [D-Phe^6,Leu-NHEt^13,des-Met^14]Bombesin(6-14), read-out: Biodistribution […], Mean): 0.62 %ID/g | tissue uptake at 1 h ([4]; pancreas, Biodistribution PANCREAS, Mean, 60 MIN p.i., read-out: Biodistribution […], Mean): 1.2 %ID/g | tissue uptake at 2 h ([4]; pancreas, Biodistribution PANCREAS, Mean, read-out: Biodistribution […], Mean): 0.3 %ID/g | tissue uptake at 1 h ([4]; seminal, 60 MIN BLOCKED, co-injection of 100 μg of [D-Phe^6,Leu-NHEt^13,des-Met^14]Bombesin(6-14), read-out: Biodistribution SEMINAL, Mean): 1.95 %ID/g | tissue uptake at 1 h ([4]; seminal, 60 MIN p.i., read-out: Biodistribution SEMINAL, Mean): 2.44 %ID/g | tissue uptake at 2 h ([4]; seminal, read-out: Biodistribution SEMINAL, Mean): 1.63 %ID/g | tissue uptake at 1 h ([4]; spleen, 60 MIN BLOCKED, co-injection of 100 μg of [D-Phe^6,Leu-NHEt^13,des-Met^14]Bombesin(6-14), read-out: Biodistribution SPLEEN, Mean): 0.33 %ID/g | tissue uptake at 1 h ([4]; spleen, 60 MIN p.i., read-out: Biodistribution SPLEEN, Mean): 0.27 %ID/g | tissue uptake at 2 h ([4]; spleen, read-out: Biodistribution SPLEEN, Mean): 0.11 %ID/g | tissue uptake at 1 h ([4]; stomach, 60 MIN BLOCKED, co-injection of 100 μg of [D-Phe^6,Leu-NHEt^13,des-Met^14]Bombesin(6-14), read-out: Biodistribution STOMACH, Mean): 0.07 %ID/g | tissue uptake at 1 h ([4]; stomach, 60 MIN p.i., read-out: Biodistribution STOMACH, Mean): 0.19 %ID/g | tissue uptake at 2 h ([4]; stomach, read-out: Biodistribution STOMACH, Mean): 0.06 %ID/g | tissue uptake at 1 h ([4]; testes, 60 MIN BLOCKED, co-injection of 100 μg of [D-Phe^6,Leu-NHEt^13,des-Met^14]Bombesin(6-14), read-out: Biodistribution TESTES, Mean): 0.21 %ID/g | tissue uptake at 1 h ([4]; testes, 60 MIN p.i., read-out: Biodistribution TESTES, Mean): 0.16 %ID/g | tissue uptake at 2 h ([4]; testes, read-out: Biodistribution TESTES, Mean): 0.07 %ID/g | tissue to tissue ratio at 1 h ([4]; tumor/blood, 60 MIN p.i., read-out: TUMOR-TO-BLOOD ratio, Mean): 22.2 | tissue to tissue ratio at 2 h ([4]; tumor/blood, read-out: TUMOR-TO-BLOOD ratio, Mean): 75.3 | tissue to tissue ratio at 1 h ([4]; tumor/bone, 60 MIN BLOCKED, co-injection of 100 μg of [D-Phe^6,Leu-NHEt^13,des-Met^14]Bombesin(6-14), read-out: TUMOR-TO-BONE ratio, Mean): 39.8 | tissue to tissue ratio at 1 h ([4]; tumor/bone, 60 MIN p.i., read-out: TUMOR-TO-BONE ratio, Mean): 89.9 | tissue to tissue ratio at 2 h ([4]; tumor/bone, read-out: TUMOR-TO-BONE ratio, Mean): 173 | tissue to tissue ratio at 1 h ([4]; tumor/kidney, 60 MIN BLOCKED, co-injection of 100 μg of [D-Phe^6,Leu-NHEt^13,des-Met^14]Bombesin(6-14), read-out: TUMOR-TO-KIDNEY ratio, Mean): 1.77 | tissue to tissue ratio at 1 h ([4]; tumor/kidney, 60 MIN p.i., read-out: TUMOR-TO-KIDNEY ratio, Mean): 6.03 | tissue to tissue ratio at 2 h ([4]; tumor/kidney, read-out: TUMOR-TO-KIDNEY ratio, Mean): 6.96 | tissue to tissue ratio at 1 h ([4]; tumor/liver, 60 MIN BLOCKED, co-injection of 100 μg of [D-Phe^6,Leu-NHEt^13,des-Met^14]Bombesin(6-14), read-out: TUMOR-TO-LIVER ratio, Mean): 7.33 | tissue to tissue ratio at 1 h ([4]; tumor/liver, 60 MIN p.i., read-out: TUMOR-TO-LIVER ratio, Mean): 26.2 | tissue to tissue ratio at 2 h ([4]; tumor/liver, read-out: TUMOR-TO-LIVER ratio, Mean): 35 | tissue to tissue ratio at 1 h ([4]; tumor/muscle, 60 MIN BLOCKED, co-injection of 100 μg of [D-Phe^6,Leu-NHEt^13,des-Met^14]Bombesin(6-14), read-out: TUMOR-TO-MUSCLE ratio, Mean): 44 | tissue to tissue ratio at 1 h ([4]; tumor/muscle, 60 MIN p.i., read-out: TUMOR-TO-MUSCLE ratio, Mean): 102 | tissue to tissue ratio at 2 h ([4]; tumor/muscle, read-out: TUMOR-TO-MUSCLE ratio, Mean): 411 | tissue to tissue ratio at 1 h ([4]; tumor/pancreas, TUMOR-TO-PANCREAS ratio, Mean, 60 MIN BLOCKED, co-injection of 100 μg of [D-Phe^6,Leu-NHEt^13,des-Met^14]Bombesin(6-14), read-out: TUMOR-TO-[…] ratio, Mean): 6.17 | tissue to tissue ratio at 1 h ([4]; tumor/pancreas, TUMOR-TO-PANCREAS ratio, Mean, 60 MIN p.i., read-out: TUMOR-TO-[…] ratio, Mean): 9.32 | tissue to tissue ratio at 2 h ([4]; tumor/pancreas, TUMOR-TO-PANCREAS ratio, Mean, read-out: TUMOR-TO-[…] ratio, Mean): 31.1 | tissue uptake at 1 h ([4]; whole blood, 60 MIN BLOCKED, co-injection of 100 μg of [D-Phe^6,Leu-NHEt^13,des-Met^14]Bombesin(6-14), read-out: Biodistribution BLOOD, Mean): 0.53 %ID/g | tissue uptake at 1 h ([4]; whole blood, 60 MIN p.i., read-out: Biodistribution BLOOD, Mean): 0.49 %ID/g | tissue uptake at 2 h ([4]; whole blood, read-out: Biodistribution BLOOD, Mean): 0.13 %ID/g
